In series [1] the test system is THP-1 cell adhesion to CXCL8-treated HMEC-1. Type of series: cell-based, human. As to conditions: 25 ng/ml CXCL8, 18 h, no peptide, vs control. How it is done:
Human micro-vascular endothelial cell-1 (HMEC-1, from American Type Culture Collection Manassas, USA) was maintained in MCDB 131 medium (Sigma, USA) with L-glutamine and fetal bovine serum (Sigma, USA) to a final concentration of 15%. The medium was supplemented with 500 units/ml penicillin (Biowest, USA), 500 μg/ml streptomycin (Biowest, USA), 10 ng/ml Epidermal Growth Factor (ProSpec, USA) and 1 µg/ml hydrocortisone (Sigma, USA). The THP-1 cells were maintained in the RPMI-1640 medium (Invitrogen, USA) with 10% FBS. For the assay of THP-1 cell adhesion to HMEC-1 monolayers, confluent HMEC-1 cell monolayers cultured on 24-well plates were pretreated with peptides for one hour and activated with 25 ng/ml LPS (Sigma, USA) or full length CXCL8 (ProSpec, USA) for 18 hours. THP-1 monocytes were suspended in RPMI 1640 and prelabeled with 5 mM Calcein-AM (Invitrogen, USA) for 30 minutes. Before the THP-1 cells were added to HMEC-1, the monolayers were washed twice to remove LPS or CXCL8. Fluorescence labeled monocytes (3 × 10^5 cells/well) were then added to HMEC-1 and incubated for 30 minutes at 37 °C. […] The images of adhered THP-1 cells were photographed (five images per well) under fluorescent microscopy and the number of attached monocytes was counted with the software AlphaImager 2200 (Alpha Innotech, USA).

For series [2], the system named is THP-1 transmigration across CXCL8-stimulated HMEC-1. Briefly: CXCL8-induced monocyte transendothelial migration across HMEC-1 (Transwell). Type of series: cell-based, human. To be noted: 25 ng/ml CXCL8, 18 h, vs absence of CXCL8. The procedure: (§1) Human micro-vascular endothelial cell-1 (HMEC-1, from American Type Culture Collection Manassas, USA) was maintained in MCDB 131 medium (Sigma, USA) with L-glutamine and fetal bovine serum (Sigma, USA) to a final concentration of 15%. The medium was supplemented with 500 units/ml penicillin (Biowest, USA), 500 μg/ml streptomycin (Biowest, USA), 10 ng/ml Epidermal Growth Factor (ProSpec, USA) and 1 µg/ml hydrocortisone (Sigma, USA). The THP-1 cells were maintained in the RPMI-1640 medium (Invitrogen, USA) with 10% FBS.
Migration of THP-1 cells across HMEC-1 was performed in a Transwell system (BD Bioscences, USA). Briefly, HMEC-1 cells cultured on transwell (polycarbonate membranes with 8 μm pore sizes) filters were pretreated with peptides for one hour and then stimulated with 25 ng/ml LPS or CXCL8 for 18 hours. THP-1 monocytes (2 × 10^5 cells/well) were added to the upper chamber of transwell inserts containing 50 μl RPMI 1640. LPS (25 ng/ml), CXCL8 peptide (p_wt14) (0.5 and 5 mM), or both combinations were added to the lower chamber to initiate transmigration. After four hours of incubation at 37 °C under 5% CO2, cells that had transmigrated to the lower chamber were harvested and counted using microscopy. All experiments were measured in at least three independent studies, and the data represent the number of transmigrated THP-1 cells.

The next series deals with HMEC-1. Briefly: Cell viability assay (WST-1). Format: cell-based, human. As to conditions: various concentrations of p_wt14, 24 and 48 h, WST-1, vs control. The procedure: as §1
To evaluate if the peptide p_wt14 is toxic to the HMEC-1 under resting conditions, 2 × 10^4 cells were dispensed into each well of 96-well micro-plates and incubated for 2 hours for adhesion. After that, the medium containing peptide p_wt14 at various concentrations was added. After 24 and 48 hours of incubation, cells were washed with Hank’s balanced salt solution and the viabilities of HMEC-1were determined by WST-1 assay kit (Roche, USA). Each experiment was performed in quadruplicate and repeated at least three times.
For orientation: Formazan colour is commonly taken as a measure of viable cells.

The target of series [3] is CXCR1p receptor-derived peptide (Homo sapiens), P25024. Briefly: SPR. To be noted: modification not given.

Ends that are not written are not given here.

Chain of CXCR1p receptor-derived peptide (Homo sapiens), P25024 (P25024 9-29): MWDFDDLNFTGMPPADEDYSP

For the molecule “CXCL8: chemokine CXCL8 (also known as interleukin-8 or IL-8), full length”, in series [1], the “effect of CXCL8 on monocyte adhesion to HMEC-1 (in words)” value is listed as “significant increase in the number of adhered monocytes”. In addition, the “effect of CXCL8 on monocyte transmigration (in words)” value in series [2] was “considerable increase in monocyte transmigration”.
With QCIKTYSKPFHPKF [p_wt14], in the series with HMEC-1, the “HMEC-1 cell viability (in words)” value is “no significant cell viability difference”.
Usually Kd stands for the equilibrium constant for the complex coming apart. Low readings indicate higher affinity, high ones lower affinity. In series [3], IKTYSKPFHPKFIK [CXCL8 peptide p_wt14 14-residue peptide, P10145] yielded a Kd of 252 µM.

(Values after publication PMC4686899, “Peptides derived from CXCL8 based on in silico analysis inhibit CXCL8 interactions with its receptor CXCR1” (Scientific Reports, 2015).)
